The values below come from US5989846A, “Assays to identify inducers of plant defense resistance” (Rutgers, The State University of New Jersey, priority 1995, dated 1999).

The Inhibition is the relative decrease from the control value, in per cent. As usually defined, the Kd is a measure of binding affinity in units of concentration.

For one assay, the system named is ascorbate peroxidase. Description: Ascorbate peroxidase activity in tobacco leaf extracts. Format: biochemical, Nicotiana tabacum cv. Xanthi nc. Summed up:
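Soluble extracts from leaves of 6–8-week Nicotiana tabacum cv. Xanthi nc, desalted into 50 mM potassium phosphate pH 7 with 100 μM ascorbate, were assayed (30–50 μg protein) with or without 100 or 1000 μM SA or INA. Ascorbate oxidation followed as A290 decrease; means of three replicates.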

Assay [1] deals with salicylic acid binding protein. Kind of assay: Scatchard analysis of [14C] salicylic acid binding. Conditions: tobacco SABP; [14C] salicylic acid 2 to 70 μM. The protocol: Kd is defined herein as the concentration of salicylic acid needed to occupy 50% of the binding sites on the salicylic acid binding protein when the binding process reaches its equilibrium. Thus, a smaller value of Kd indicates a stronger interaction between salicylic acid and salicylic acid binding protein and vice versa. Kd is determined by measuring the amounts of salicylic acid bound to salicylic acid binding-protein at various concentrations of salicylic acid and then plotting the ratio of bound to free, salicylic acid concentrations versus bound salicylic acid concentrations to give a linear plot with a slope of -1/Kd. […]
A key element during the characterization and the purification process is a simple, inexpensive, sensitive and reliable method for determining the salicylic acid binding activity. […] (specifically radioactivity 55 Ci/mol; purchased from New England Nuclear), 150 μl of proteins binding sample was loaded onto the tube column, which was then rapidly centrifuged for 2 minutes at full speed and the solution of proteins and bound [^14 C-salicylic acid] that was excluded from the gel was collected into another tube that had been placed under the tube column during the centrifugation. […]

In assay [2] the test system is catalases from non-plant sources. Kind of assay: Inhibition of non-plant catalases by salicylic acid. Format: biochemical. Conditions: catalases from fungi and animals. From the text: Genes or cDNA copies for several of these catalases have been cloned (e.g. Scandalios, J. G. et al., Proc. Natl. Acad. Sci. USA, 77 (1980) 5360-5364; Bell, G. I. et al., Nucleic Acids Res., 14, (1986), 5561-5562; Hartig, A. et al., Eur. J. Biochem, 160, (1986) 487-490). A gene encoding one of these catalases can be introduced and expressed in a plant in the sense orientation using appropriate regulatory sequences (e.g. CaMV 35S promoter and nopaline synthase cleavage and polyadenylation signal) and vectors (e.g. PCGN 1540 or pCIB3064) as described in Example 25.

The subject of a further assay is H2 O2. Kind of assay: Abundance of H2O2 in treated tobacco leaves. Format: in vivo. Conditions: FIG. 11. From the text: The abundance of H2 O2 increased in SA- or 3AT-treated tobacco leaves by 50-60% over the control levels observed in water-treated leaves. […] Thus, elevated levels of H2 O2, and in turn, enhanced oxidative stress in vivo, were consistent with inhibition of catalase activity by SA observed in vitro.

The next assay relates to catalase. Kind of assay: Catalase activity of crude extracts. Format: biochemical. From the text: In the presence of SA, the catalase activity of the highly purified SABP was inhibited by 80% (Table 6). A similar level of inhibition of catalase activity by SA (^- 70%) was also observed with crude extracts; inhibition appeared to be reversible since the catalase activity could be largely recovered by extensive dialysis. To assess the functional relevance of catalase inhibition by SA, several SA analogues, with or without biological activity in inducing plant PR genes and disease resistance, were compared for their ability to inhibit the catalase activity of SABP (Table 6).

In the next assay the test system is SABP. Also on record: concentration or dose not given beside the values. Conditions: Table 6; previously published data (Chen et al. 1993); cited from earlier work.

As to `O=C(O)c1ccccc1O` [salicylic acid, 2-hydroxybenzoic acid], the “% Inhibition of ascorbate peroxidase” value with ascorbate peroxidase (200 μM compound, corrected for quenching of auto oxidation) is listed as 83 ± 9%. The IC50 on ascorbate peroxidase (750 μM ascorbate, 25 to 500 μM compound, FIG. 17, read-out: Concentration necessary for 50% inhibition (I50) of ascorbate peroxidase) is around 80 µM. Besides, the Activity is 2.0 ± 0.2 μmols of oxidized substrate mi in the assay on ascorbate peroxidase (APX, 100 μM compound) and 0.24 ± 0.1 μmols of oxidized substrate mi in the assay on ascorbate peroxidase (APX, 1,000 μM compound). For the same compound, the Inhibition in the assay with ascorbate peroxidase (APX, 100 μM compound) is on record as 59%; in the assay with ascorbate peroxidase (APX, 1,000 μM compound), 95%. This compound also returned a Kd in assay [1] of 14 ± 5 µM. Moreover, the “Sensitivity of non-plant catalases to inhibition” value in assay [2] is on record as “insensitive to inhibition”. For the same compound, the “Increase in abundance of H2O2 over water-treated leaves” value in the assay on H2 O2 is on record as 50-60%. Further, the “Inhibition of catalase activity” value with catalase (crude extracts) is listed as around 70%. For the same compound, the “Reversibility of catalase inhibition” value with catalase (extensive dialysis) is recorded as “reversible”. For the same compound, the “Inhibition (%) [14C]SA binding” value in the assay on SABP is recorded as 89%.
